Converted amounts (≈) assume the structure as drawn. The source made the active and inactive calls. The rule behind the calls is not given here.
Assays:
[1] = tested on: MDA-MB-231; assay: Anti-invasive activity against human MDA-MB-231 cells at <= 0.3 ug/ml; type: functional, cell-based
[2] = tested on: MDA-MB-231; assay: Cytotoxicity against human MDA-MB-231 cells; type: cell-based

| SMILES | Activity [1] | also measured |
| --- | --- | --- |
| COC1=CC(=O)C=C(C[C@H]2[C@]3(C)CC[C@H]4C(C)(C)CCC[C@]4(C)[C@H]3CC[C@]2(C)O)C1=O (stereo in doubt; (-)-3) [listing 1 of 2 here] | inactive |  |
| COC1=CC(=O)C=C(C[C@H]2[C@]3(C)CC[C@H]4C(C)(C)CCC[C@]4(C)[C@H]3CC[C@]2(C)O)C1=O (stereo in doubt; (+)-3) [listing 1 of 2 here] |  | IC50 ([2]; mda-mb-231): 0.3 µg/mL (≈ 0.7 µM) |
| COC1=CC(=O)C=C(C[C@H]2[C@]3(C)CC[C@H]4C(C)(C)CCC[C@]4(C)[C@H]3CC[C@]2(C)O)C1=O (stereo in doubt; (-)-3) [listing 2 of 2 here] |  | IC50 ([2]; Homo sapiens, MDA-MB-231, read-out: IC50): 0.3 µg/mL (≈ 0.7 µM) |
| COC1=CC(=O)C=C(C[C@H]2[C@]3(C)CC[C@H]4C(C)(C)CCC[C@]4(C)[C@H]3CC[C@]2(C)O)C1=O (stereo in doubt; (+)-3) [listing 2 of 2 here] | inactive |  |
